Results published in PubChem BioAssay AID222 (DTP/NCI, 2004).
Several values for one entry are separate records, joined by “and”; a condition that tells them apart may be missing. Equal entries are not always repeated. Toxic doses and inconclusive results are not listed. How the source made its calls: active means survival T/C of 150% or more; inactive means T/C below 125% in these data.

System: C57BL/6 mice, intracerebral ependymoblastoma, median survival T/C
Assay: NCI In Vivo Anticancer Drug Screen. Data for tumor model Ependymoblastoma (intracerebral) in C57BL/6 mice
Settings: endpoint: median survival time, vehicle: saline, higher = longer survival
Method: The antitumor activity of compounds was measured in mice bearing transplantable tumors. Survival or tumor size were measured and the results are expressed as the measurement made in the treated group (T) divided by the measurement made in the vehicle treated control group (C). The tumor model used in this assay is Ependymoblastoma (intracerebral) in C57BL/6 mice

Measured: T/C

COc1cccc2c1C(=O)c1c(O)c3c(c(O)c1C2=O)C[C@@](O)(C(=O)CO)C[C@@H]3OC1CC(N)C(O)C(C)O1 (stereo not given in full)
inactive: dose: 0.12 mg/kg/injection, schedule: Q01DX001 (ip) 96 % of control | dose: 0.25 mg/kg/injection, schedule: Q01DX001 (ip) 86 % of control | dose: 0.25 mg/kg/injection, schedule: Q01DX005 (ip) 108 % of control | dose: 0.25 mg/kg/injection, schedule: Q01DX009 (ip) 107 % of control | dose: 0.25 mg/kg/injection, schedule: Q07DX003 (ip) 106 % of control | dose: 0.25 mg/kg/injection, schedule: Q## X006 (ip) 100 % of control | dose: 0.5 mg/kg/injection, schedule: Q01DX001 (ip) 88 % of control | dose: 0.5 mg/kg/injection, schedule: Q01DX005 (ip) 108 % of control | dose: 0.5 mg/kg/injection, schedule: Q01DX009 (ip) 103 % of control | dose: 0.5 mg/kg/injection, schedule: Q## X006 (ip) 119 % of control | dose: 0.5 mg/kg/injection, schedule: Q#A X002 (ip) 105 % of control | dose: 1.0 mg/kg/injection, schedule: Q01DX001 (ip) 96 % of control (2×) and 100 % of control | dose: 1.0 mg/kg/injection, schedule: Q01DX005 (ip) 110 % of control | dose: 1.0 mg/kg/injection, schedule: Q01DX005 (oral) 100 % of control | dose: 1.0 mg/kg/injection, schedule: Q07DX003 (ip) 96 % of control | dose: 1.0 mg/kg/injection, schedule: Q## X006 (ip) 110 % of control | dose: 1.0 mg/kg/injection, schedule: Q#A X002 (ip) 97 % of control | dose: 2.0 mg/kg/injection, schedule: Q01DX001 (ip) 104 % of control and 106 % of control and 111 % of control | dose: 2.0 mg/kg/injection, schedule: Q01DX005 (ip) 103 % of control | dose: 2.0 mg/kg/injection, schedule: Q07DX003 (ip) 101 % of control | dose: 2.0 mg/kg/injection, schedule: Q## X006 (ip) 119 % of control | dose: 2.0 mg/kg/injection, schedule: Q#A X002 (ip) 93 % of control | dose: 4.0 mg/kg/injection, schedule: Q01DX001 (oral) 101 % of control and 109 % of control | dose: 4.0 mg/kg/injection, schedule: Q01DX005 (oral) 94 % of control | dose: 4.0 mg/kg/injection, schedule: Q#A X002 (ip) 101 % of control and 108 % of control | dose: 8.0 mg/kg/injection, schedule: Q01DX001 (oral) 92 % of control and 97 % of control | dose: 8.0 mg/kg/injection, schedule: Q01DX005 (oral) 100 % of control | dose: 8.0 mg/kg/injection, schedule: Q#A X002 (ip) 97 % of control | dose: 16.0 mg/kg/injection, schedule: Q01DX001 (ip) 101 % of control | dose: 16.0 mg/kg/injection, schedule: Q01DX001 (oral) 96 % of control and 98 % of control and 106 % of control | dose: 16.0 mg/kg/injection, schedule: Q#A X002 (ip) 89 % of control | dose: 32.0 mg/kg/injection, schedule: Q01DX001 (ip) 100 % of control | dose: 32.0 mg/kg/injection, schedule: Q01DX001 (oral) 89 % of control and 92 % of control and 109 % of control | dose: 32.0 mg/kg/injection, schedule: Q#A X002 (ip) 86 % of control | dose: 64.0 mg/kg/injection, schedule: Q01DX001 (oral) 103 % of control and 107 % of control and 86 % of control | dose: 64.0 mg/kg/injection, schedule: Q#A X002 (ip) 88 % of control | dose: 128.0 mg/kg/injection, schedule: Q01DX001 (ip) 88 % of control | dose: 128.0 mg/kg/injection, schedule: Q01DX001 (oral) 93 % of control and 103 % of control and 107 % of control | dose: 128.0 mg/kg/injection, schedule: Q#A X002 (ip) 86 % of control | dose: 256.0 mg/kg/injection, schedule: Q01DX001 (oral) 103 % of control and 111 % of control
